Among the test systems are CAKI-1 renal; IGROV1 ovarian; KM12 colon; LOX IMVI melanoma; NCI/ADR-RES ovarian; OVCAR-4 ovarian; SK-MEL-5 melanoma; TK-10 renal; MDA-MB-231 breast; T-47D breast.
What all share (assay): NCI-60 cell line screen, 48 h

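How tested: cells in 96-well plates exposed to compound for 48 hours at five concentrations. GI50: concentration for 50% inhibition of growth. The concentration for full growth arrest is given as TGI.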 A value given as a limit tells only on which side of the number the result lay.

In the case of `O=C1CCCCC[C@]12SC[C@H]1CON=C12`, the TGI with CAKI-1 renal is 58 µM; in the assay on IGROV1 ovarian, above 100 µM; in the assay with KM12 colon, above 100 µM; with LOX IMVI melanoma it was above 100 µM; in the assay with NCI/ADR-RES ovarian, 83.4 µM; with OVCAR-4 ovarian, above 100 µM. The TGI in the assay with SK-MEL-5 melanoma and in the assay on TK-10 renal was above 100 µM in each case.
For the compound `CCOC(=O)c1c(C)[nH]c(/C=C2\N=C(c3ccc[nH]3)C=C2OC)c1C`, the GI50 was 0.0461 µM in the assay with CAKI-1 renal; 0.0305 µM in the assay with IGROV1 ovarian; 0.015 µM in the assay on KM12 colon; below 0.01 µM in the assay with LOX IMVI melanoma; 0.0263 µM in the assay on MDA-MB-231 breast; 0.0457 µM with NCI/ADR-RES ovarian. Further, the results for the GI50 in the assay with OVCAR-4 ovarian, in the assay on SK-MEL-5 melanoma and in the assay on TK-10 renal were 0.135 µM, 0.0231 µM and 0.0307 µM, respectively. Moreover, the TGI was found to be 0.795 µM in the assay on CAKI-1 renal; 1.09 µM with IGROV1 ovarian; 1.32 µM in the assay with KM12 colon; 0.0168 µM in the assay with LOX IMVI melanoma; 1.32 µM in the assay on MDA-MB-231 breast; 3.45 µM with NCI/ADR-RES ovarian. In addition, the TGI with OVCAR-4 ovarian was found to be 2.81 µM; in the assay on SK-MEL-5 melanoma, 0.0698 µM; with TK-10 renal it was 1.75 µM.
On to `N#CC(N=Nc1ccccc1)c1nc2ccccc2o1` (stereo not given), for which the TGI was above 100 µM in the assay on CAKI-1 renal; 42.9 µM in the assay on IGROV1 ovarian; above 100 µM in the assay on KM12 colon; 57.4 µM with MDA-MB-231 breast; 64 µM in the assay with NCI/ADR-RES ovarian; 37.9 µM in the assay on OVCAR-4 ovarian. Also, the TGI in the assay on SK-MEL-5 melanoma is above 100 µM; with T-47D breast, 39.9 µM; in the assay with TK-10 renal it was 58.3 µM.
In the case of `CC1(C)C[C@H](O)[C@H](O)[C@]23C(=O)O[C@H](O)[C@H]2C(C=O)=CC[C@@H]13`, the TGI with CAKI-1 renal, in the assay on IGROV1 ovarian, with KM12 colon, in the assay on LOX IMVI melanoma, in the assay on MDA-MB-231 breast and with NCI/ADR-RES ovarian was above 100 µM throughout. The TGI in the assay with SK-MEL-5 melanoma, with T-47D breast and with TK-10 renal was above 100 µM in each case.
As for `CCOC(=O)c1cc(=O)oc2c1N(C)c1ncccc1N2`, the TGI with CAKI-1 renal, with KM12 colon, with LOX IMVI melanoma, with MDA-MB-231 breast, in the assay with NCI/ADR-RES ovarian and in the assay with OVCAR-4 ovarian was above 100 µM throughout. In addition, the TGI in the assay on T-47D breast and in the assay with TK-10 renal was above 100 µM each time.
`COc1cc2cc(C(=O)N3CC(CCl)c4c3cc(N(C)C)c3ccccc43)[nH]c2c(OC)c1OC` (stereo not given): the TGI in the assay with CAKI-1 renal is below 0.01 µM; with KM12 colon, 1.09 µM; in the assay with LOX IMVI melanoma it was 1.86 µM; with MDA-MB-231 breast, above 100 µM; in the assay with OVCAR-4 ovarian, 0.114 µM; with SK-MEL-5 melanoma it was 0.0241 µM. The same compound came in with a TGI with TK-10 renal above 100 µM.
In the case of `COc1ccc2c(c1)CCCN1CCc3cc(OC)c(OC)cc3C21` (stereo not given), the TGI is above 100 µM with CAKI-1 renal; above 100 µM in the assay with IGROV1 ovarian; above 100 µM in the assay on KM12 colon; above 100 µM in the assay with LOX IMVI melanoma; above 100 µM in the assay with MDA-MB-231 breast; 56 µM in the assay on NCI/ADR-RES ovarian. Besides, the TGI with SK-MEL-5 melanoma, in the assay on T-47D breast and with TK-10 renal was above 100 µM in each case.
For the compound `CC[C@@]1(O)C(=O)OCc2c1cc1n(c2=O)Cc2c-1nc1ccccc1c2/C=N\NC(=O)C(N)Cc1cnc[nH]1` (stereo not given in full), the TGI was 3.21 µM with CAKI-1 renal; above 54.7 µM in the assay on IGROV1 ovarian; above 28.7 µM with KM12 colon; 3.37 µM with LOX IMVI melanoma; above 100 µM with MDA-MB-231 breast; above 100 µM in the assay on OVCAR-4 ovarian. Further, the TGI with SK-MEL-5 melanoma was 1.03 µM; in the assay with T-47D breast, above 100 µM; with TK-10 renal, above 100 µM.
With `Cc1ccc(Nc2sc(C)cc2C#N)c([N+](=O)[O-])c1`, the TGI in the assay with CAKI-1 renal, with KM12 colon, with MDA-MB-231 breast, with NCI/ADR-RES ovarian, in the assay on OVCAR-4 ovarian and with T-47D breast was above 100 µM throughout.
As for `O=C(NCCCCNCCCNC(=O)c1cc(-c2ccccc2)nc2ccccc12)c1cc(-c2ccccc2)nc2ccccc12`, the TGI with CAKI-1 renal turned out to be 3.82 µM; with IGROV1 ovarian it was 2.88 µM; in the assay with NCI/ADR-RES ovarian, 5.09 µM; with SK-MEL-5 melanoma, 2.75 µM; with TK-10 renal it was 2.93 µM.
In the case of `S=C(c1c[nH]c2ccccc12)N1CCN(c2ccccc2)CC1`, the TGI in the assay on CAKI-1 renal, in the assay on IGROV1 ovarian, with KM12 colon, with LOX IMVI melanoma, with MDA-MB-231 breast and in the assay with NCI/ADR-RES ovarian was above 100 µM each time. Moreover, the TGI in the assay on SK-MEL-5 melanoma and in the assay on TK-10 renal was above 100 µM in each case.
On to `CSc1nncc2[nH]cnc12`, for which the TGI in the assay on CAKI-1 renal, in the assay on IGROV1 ovarian, in the assay on KM12 colon, in the assay with MDA-MB-231 breast, in the assay on NCI/ADR-RES ovarian and with SK-MEL-5 melanoma was above 100 µM throughout. The TGI with T-47D breast and in the assay with TK-10 renal was above 100 µM throughout.
`CCc1n[nH]c(=O)n1NC(=O)c1ccccc1C(=O)O`: the TGI in the assay on IGROV1 ovarian, in the assay with KM12 colon, in the assay with LOX IMVI melanoma, in the assay with MDA-MB-231 breast, in the assay with NCI/ADR-RES ovarian and in the assay with OVCAR-4 ovarian was above 100 µM in each case. In addition, the TGI in the assay with SK-MEL-5 melanoma and in the assay with TK-10 renal was above 100 µM throughout.
Take `CC(C)(C)OC(=O)NC(Cc1ccc(OCc2ccccc2)cn1)C(=O)N1CCSCC1` (stereo not given): the TGI in the assay with CAKI-1 renal is above 100 µM; with IGROV1 ovarian, above 100 µM; with KM12 colon it was above 100 µM; in the assay on LOX IMVI melanoma it was above 100 µM; in the assay on MDA-MB-231 breast it was above 100 µM; in the assay on NCI/ADR-RES ovarian it was 94.5 µM. Moreover, the TGI was 29.9 µM with SK-MEL-5 melanoma, 49.6 µM in the assay with T-47D breast and above 100 µM in the assay with TK-10 renal.
On to `O=C1OC[C@@H]2Cc3c([nH]c4ccccc34)[C@@H](c3cc(O)c(O)c(O)c3)N12`, for which the TGI was above 100 µM in the assay on CAKI-1 renal; 49.7 µM in the assay with IGROV1 ovarian; above 100 µM with KM12 colon; 42.3 µM in the assay with MDA-MB-231 breast; 72.3 µM in the assay with NCI/ADR-RES ovarian; 26.1 µM in the assay on OVCAR-4 ovarian. The TGI in the assay on SK-MEL-5 melanoma was 29.2 µM; in the assay with T-47D breast, above 100 µM; with TK-10 renal it was above 100 µM.

These data come from PubChem BioAssay (NCI).
